Series [1] concerns Reh cells expressing PRPS1 mutant genes. The series can be described thus: Identification of cells apoptosis (Annexin V / 7-AAD flow cytometry). Conditions: 10 μg/ml 6-MP or 6-TG, 72 hours; cells expressing PRPS1 mutant genes compared with control group expressing empty load. The format is cell-based, human. The method, then: (i) Cell inoculation: Reh cells expressing the PRPS1 wild-type and various PRPS1 mutants were counted and seeded into 12-well plates with inoculated 3×10^5 cells per well. Duplicated wells were set up.
(ii) Cell treatment: the drug 6-MP or 6-TG with concentration of 10 μg/ml was added to a 12-well plate with grown cells and incubated at 37° C. for 72 hours.
(iii) Cell staining: After 72 hours, the cells were collected by centrifugation, washed with PBS buffer, added in […] and 7-AAD dye labeled with PE from BD, and incubated for 15 minutes at room temperature. The cells were centrifuged to discard the supernatant and washed twice with PBS. (iv) Identification by Flow Cytometer: proportion of cell apoptosis was determined using Flow Cytometer from Canto II BD.
For orientation: Flow cytometry measures light scatter and fluorescence of single cells or particles in a stream.

The test system of series [2] is Reh cells expressing different PRPS1 mutant genes. The series can be described thus: Drug susceptibility test of 6-MP / 6-TG (cell survival, CellTiter-Glo). The format is cell-based, human. Conditions: Reh cells expressing PRPS1 mutant genes compared with control group expressing empty load; 72 hours. How it is done:
Reh cells are a strain of human acute B lymphoblastic leukemia. The susceptibility of the PRPS1 mutant to the chemotherapeutic drug 6-MP was determined by the survival rate of Reh cells expressing different PRPS1 mutant genes which were treated by chemotherapeutic drug 6-MP, wherein the process comprises steps of
(i) Cell inoculation: Reh cells expressing the PRPS1 wild-type and all kinds of PRPS1 mutants were counted and seeded into 96-well plates with inoculated 10^4 cells per well. Five parallel wells were designed.
Drugs were added into 96-well plates with grown cells and incubated at 37° C. for 72 hours.
The susceptibility of the PRPS1 mutant to the chemotherapeutic drug 6-TG was determined by the survival rate of Reh cells expressing different PRPS1 mutant genes which were treated by chemotherapeutic drug 6-TG, in which the process comprises steps of
(i) Cell inoculation: Reh cells expressing the PRPS1 wild-type and all kinds of PRPS1 mutants were counted and seeded into 96-well plates with inoculated 10^4 cells per well. Five parallel wells were set up.
Drug were added into 96-well plates with grown cells and incubated at 37° C. for 72 hours.
(In general: In ATP-based viability assays light output follows the ATP content of the culture.)

In series [3] the test system is Reh-PRPS1-A190T cells. The series is described as follows: Concentration of 6-MP metabolites in cells treated with Lometrexol (LC-MS). The format is cell-based, human. The following applies: Reh-PRPS1-A190T treated with Lometrexol vs control. From the text:
(§1) (v) Determining the concentration of 6-MP metabolites: the same as Embodiment 13.

The test system of series [4] is Reh-PRPS1-S103T cells. The description is as above. The class given is cell-based, human. The following applies: Reh-PRPS1-S103T treated with Lometrexol vs control.
Source text: as §1

The subject of series [5] is Reh-PRPS1-A190T cells. The series can be described thus: Intracellular concentration of hypoxanthine in cells treated with Lometrexol (LC-MS). The following applies: Reh-PRPS1-A190T treated with Lometrexol vs control. The class given is cell-based, human. How it is done: (§2) (iii) Cell collection: cells were pipetted out from the well and centrifuged at 1500 rpm to remove the supernatant. The cells were washed with PBS once, and centrifuged again (500 g). Removed the supernatant.
(§3) (iv) Cell lysis: the cells were lysed using 200 μl 80% methanol per 3×10^6 cells.
(§4) (v) The lysed cells were centrifuged by 14,000 g at 4° C. for 10 minutes, and then the supernatant was transferred to a 1.5 ml EP tube.
(§5) (vi) The contents of hypoxanthine, AICAR and Inosine were detected by LC-MS technology (ABI 5500 Qtrap coupled with Waters Acquity UPLC), and standard curves for absolute quantification were made using ^13C5, ^15N4-hypoxanthine (Cambridge isotope laboratories, cat #489522), AICAR (sigma, cat #A9978) and Inosine (Sigma, cat #I4125), respectively.
(§6) (vi) Determining the intracellular concentration of hypoxanthine: the same as Embodiment 14.

For series [6], the system named is Reh-PRPS1-S103T cells. The series is described as above. The class given is cell-based, human. The following applies: Reh-PRPS1-S103T treated with Lometrexol vs control. The method, then: as §2, §3, §4, §5, §6
Series [7] has as its system Reh cells expressing the PRPS1 wild-type. The series can be described thus: Cell-level feedback regulation of PRPS1 activity by GDP/ADP (13C5-PRPP by LC-MS). The format is cell-based, human. The following applies: wild-type experimental group; 2 mM ADP or 0.5 mM GDP, 4 hours. The method, then: (§7) In the present invention, the intracellular activity of PRPS1 was detected by means of isotope labeling in combination with the technologies of cell biology and metabolomics, and based on this, the effect of nucleotide GDP/ADP on PRPS1 activity was evaluated. The preferred embodiment is as follows:
(§8) (i) Cell culture: Reh cells expressing the PRPS1 wild-type and various PRPS1 mutants were counted and seeded into 6 cm culture dish, and 3×10^6 cells were inoculated in each well.
(§9) (ii) Cell treatment: 2 mM ADP or 0.5 mM GDP was added to the culture dish and cells were treated for 4 hours, after that, the cells were resuspended using glucose-free medium (Gibco, cat #11879-020), and 10 mM glucose labeled with ^13C6 was added into each 6 cm culture dish (Cambridge isotope laboratories, cat #CLM-1396-1) and labeled for 5 minutes. (iii) Cell collection: The cells were transferred to a centrifuge tube, centrifuged at 3,000 g for 5 minutes, the supernatant was removed, and the cells were lysed using 3×10^6 cells/200 μl 80% methanol. (iv) The level of ^13C5-PRPP was detected by LC-MS (ABI 5500 Qtrap coupled with Waters Acquity UPLC), and standard curve quantification was made using PRPP (sigma, cat #P8296). The activity of PRPS1 was determined according to the level of PRPP.

Series [8] has as its system Reh cells expressing PRPS1 mutant genes. Described as above. Conditions: each PRPS1 mutant gene in experimental group; 2 mM ADP or 0.5 mM GDP, 4 hours. The format is cell-based, human. The method, then:
as §7, §8, §9

In series [9] the test system is PRPS1 mutants S103T, 5103N, N144S, T303S, K176N, D183E, A190T, A190V, L191F. The series can be described thus: Inhibition of GDP/ADP on PRPS1 protein activity in vitro (Kinase-Glo). Conditions: relapse-specific PRPS1 mutants compared with PRPS1 wild-type. The format is biochemical, human. How it is done:
(§10) ATP (Item No. A7699), ADP (Item No. A2754), GDP (Item No. G7172) and ribose-5-phosphate (Item No. R7750) were purchased from Sigma. The reaction system comprised 50 mM Tris pH 7.5, 2 mM phosphate, 1 mM DTT, 10 mM MgCl2, 0.5 mM ribose-5-phosphate, 0.5 mM ATP and PRPS1 protein.
(§11) (ii) Inhibition of GDP/ADP on PRPS1 protein activity: 3 times gradient dilution of the GDP/ADP with an initial concentration of 5 mM And 15 μL of PRPS1 in vitro enzyme reaction system was prepared, added into 384-well plate, and reacted at 37° C. for 30 minutes. Then 10 μL of Kinase-Glo reagent (Item No. V3722) from Promega was added reacted at 37° C. for 15 minutes to terminate the reaction. The chemiluminescence values can be read in a microplate reader, and the inhibition of GDP/ADP on PRPS1 protein activity was calculated by Graphpad 5.0.
(In general: Kinase-Glo reads ATP consumption through a luciferase reaction.)

Series [10] relates to PRPS1 loss-of-function mutants A87T and M115T. Described as above. The format is biochemical, human. The following applies: known loss-of-function mutants A87T and M115T compared with wild-type. How it is done: as §10, §11
Series [11] concerns Reh cells expressing PRPS1 mutants. The series is described as follows: Identification of intracellular metabolites of 6-MP by LC-MS. Conditions: 10 μM 6-MP, 4 hours; mutants in experimental groups compared with control group. The format is cell-based, human. How it is done: 6-MP is a prodrug and needs to be undergone metabolic reactions in vivo to form TIMP and TGMP before it works, as shown in FIG. 9C. The identification procedure is as follows:
(i) Cell inoculation: Reh cells expressing the PRPS1 wild-type and various PRPS1 mutants were counted and seeded into 6 cm culture dish with inoculated 3×10^6 cells in each plate.
(ii) Cell treatment: 10 μM chemotherapy drug 6-MP was added into each 6 cm culture dish and treated for 4 hours;
(iii) Cell collection: The cells were transferred to a centrifuge tube, centrifuged at 3,000 g for 5 minutes to remove the supernatant, and lysed at 3×10^6 cells per 200 μl 80% methanol;
(iv) The amounts of metabolites from chemotherapeutic drugs 6-MP, TIMP, TGMP, r-MP, r-TG and r-MMP were measured by LC-MS (ABI 5500 Qtrap coupled with Waters Acquity UPLC), and standard curve for quantification was made using TIMP (Jean Bioscience, […], r-TG (Sigma, cat #858412), r-MMP (Sigma, cat #M4002) respectively.

For series [12], the target named is HGPRT (Homo sapiens, UniProt P00492). The following applies: for TIMP generation (6-MP conversion by HGPRT): 100 μM 6-MP as reaction substrate, increased concentration of hypoxanthine; for affinity to HGPRT (Km): compared with that of 6-MP and HGPRT. The method, then:
Chemotherapeutic drug 6-MP is an analog of hypoxanthine, and both 6-MP and hypoxanthine are substrates of HGPRT. The present invention established an in vitro enzymatic reaction to determine the Km value of 6-MP and hypoxanthine reacting with HGPRT, respectively, which reflects the affinity of HGPRT to hypoxanthine and 6-MP. The preferred embodiment is as follows:
The specific reaction system is as follows:
Hypoxanthine and 6-MP were diluted in a concentration gradient, reacted at 37° C. for 1 hour, and 80% methanol was added to terminate the reaction. The contents of IMP and TIMP were detected by LC-MS. The reaction curves were plotted and the Km values of hypoxanthine and 6-MP were calculated by Graphpad 5.0 software.

Read-outs that look alike come from different tables or passages of the source.

Chain of HGPRT (P00492 whole entry): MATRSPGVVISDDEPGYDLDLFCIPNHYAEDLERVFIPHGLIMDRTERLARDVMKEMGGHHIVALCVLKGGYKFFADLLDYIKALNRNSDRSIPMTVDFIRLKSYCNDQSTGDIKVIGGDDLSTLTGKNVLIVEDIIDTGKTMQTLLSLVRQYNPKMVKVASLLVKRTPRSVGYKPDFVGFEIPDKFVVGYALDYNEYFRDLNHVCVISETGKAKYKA

For the compound `Nc1nc2nc[nH]c2c(=S)[nH]1` [6-TG, 6-thioguanine], in series [1], the “apoptotic ratio of cells” value is on record as “significantly down-regulated”. For the same compound, the “IC50 values of drug” value in [2] is “significantly increased”.
Regarding Lometrexol, the “intracellular levels of 6-MP metabolites TIMP and TGMP” value in [3] and in series [4] was “significantly increased” in each case. Also, the concentration of hypoxanthine result in [5] and in series [6] was “significantly decreased” each time.
Regarding `Nc1ncnc2c1ncn2[C@@H]1O[C@H](COP(=O)(O)OP(=O)(O)O)[C@@H](O)[C@H]1O` [ADP], in [7], the “concentration of PRPP after adding the nucleotide” value is given as “decreased”. The “concentration of PRPP product after adding the nucleotide” value in [8] is listed as “not affected”. The entries for the “inhibition of GDP/ADP on PRPS1 protein activity” value in series [9] and in [10] were “significantly lower” and “no significant difference”, respectively.
Turning to `Nc1nc2c(ncn2[C@@H]2O[C@H](COP(=O)(O)OP(=O)(O)O)[C@@H](O)[C@H]2O)c(=O)[nH]1` [GDP], the “concentration of PRPP after adding the nucleotide” value in [7] was “decreased”. Moreover, in series [8], the “concentration of PRPP product after adding the nucleotide” value is given as “not affected”. Besides, the “inhibition of GDP/ADP on PRPS1 protein activity” value in [9] is given as “significantly lower”; in series [10] it was “no significant difference”.
As to `Sc1ncnc2nc[nH]c12` [6-MP, 6-mercaptopurine], in series [1], the “apoptotic ratio of cells” value is on record as “significantly down-regulated”. Further, in [2], the “IC50 values of drug” value is “significantly increased”. Further, the “contents of 6-MP metabolites TIMP, TGMP and r-MP, r-TG and r-MMP in cells” value in [11] is on record as “significantly lower”.
Turning to `O=c1[nH]cnc2nc[nH]c12` [hypoxanthine], in series [12], the “TIMP generation (6-MP conversion by HGPRT)” value is recorded as “significantly inhibited” and the “affinity to HGPRT (Km)” value was “significantly higher”. In series [12] (listed as HX), the “TIMP generation (6-MP conversion by HGPRT)” value is listed as “can suppress” and the “affinity to HGPRT (Km)” value is recorded as “preferred to 6-MP”.
